Measured values published in article PMC2756456 (Clinical cancer research : an official journal of the …, 2009).

Biological target: myosin light chain kinase (MLCK) (Homo sapiens, UniProt Q15746)
Experiment: radiometric [γ-33P]ATP kinase assay with peptide substrate KKLNRTLSFAEPG
Assay type: biochemical

Sequence of myosin light chain kinase (MLCK) (Q15746 whole entry): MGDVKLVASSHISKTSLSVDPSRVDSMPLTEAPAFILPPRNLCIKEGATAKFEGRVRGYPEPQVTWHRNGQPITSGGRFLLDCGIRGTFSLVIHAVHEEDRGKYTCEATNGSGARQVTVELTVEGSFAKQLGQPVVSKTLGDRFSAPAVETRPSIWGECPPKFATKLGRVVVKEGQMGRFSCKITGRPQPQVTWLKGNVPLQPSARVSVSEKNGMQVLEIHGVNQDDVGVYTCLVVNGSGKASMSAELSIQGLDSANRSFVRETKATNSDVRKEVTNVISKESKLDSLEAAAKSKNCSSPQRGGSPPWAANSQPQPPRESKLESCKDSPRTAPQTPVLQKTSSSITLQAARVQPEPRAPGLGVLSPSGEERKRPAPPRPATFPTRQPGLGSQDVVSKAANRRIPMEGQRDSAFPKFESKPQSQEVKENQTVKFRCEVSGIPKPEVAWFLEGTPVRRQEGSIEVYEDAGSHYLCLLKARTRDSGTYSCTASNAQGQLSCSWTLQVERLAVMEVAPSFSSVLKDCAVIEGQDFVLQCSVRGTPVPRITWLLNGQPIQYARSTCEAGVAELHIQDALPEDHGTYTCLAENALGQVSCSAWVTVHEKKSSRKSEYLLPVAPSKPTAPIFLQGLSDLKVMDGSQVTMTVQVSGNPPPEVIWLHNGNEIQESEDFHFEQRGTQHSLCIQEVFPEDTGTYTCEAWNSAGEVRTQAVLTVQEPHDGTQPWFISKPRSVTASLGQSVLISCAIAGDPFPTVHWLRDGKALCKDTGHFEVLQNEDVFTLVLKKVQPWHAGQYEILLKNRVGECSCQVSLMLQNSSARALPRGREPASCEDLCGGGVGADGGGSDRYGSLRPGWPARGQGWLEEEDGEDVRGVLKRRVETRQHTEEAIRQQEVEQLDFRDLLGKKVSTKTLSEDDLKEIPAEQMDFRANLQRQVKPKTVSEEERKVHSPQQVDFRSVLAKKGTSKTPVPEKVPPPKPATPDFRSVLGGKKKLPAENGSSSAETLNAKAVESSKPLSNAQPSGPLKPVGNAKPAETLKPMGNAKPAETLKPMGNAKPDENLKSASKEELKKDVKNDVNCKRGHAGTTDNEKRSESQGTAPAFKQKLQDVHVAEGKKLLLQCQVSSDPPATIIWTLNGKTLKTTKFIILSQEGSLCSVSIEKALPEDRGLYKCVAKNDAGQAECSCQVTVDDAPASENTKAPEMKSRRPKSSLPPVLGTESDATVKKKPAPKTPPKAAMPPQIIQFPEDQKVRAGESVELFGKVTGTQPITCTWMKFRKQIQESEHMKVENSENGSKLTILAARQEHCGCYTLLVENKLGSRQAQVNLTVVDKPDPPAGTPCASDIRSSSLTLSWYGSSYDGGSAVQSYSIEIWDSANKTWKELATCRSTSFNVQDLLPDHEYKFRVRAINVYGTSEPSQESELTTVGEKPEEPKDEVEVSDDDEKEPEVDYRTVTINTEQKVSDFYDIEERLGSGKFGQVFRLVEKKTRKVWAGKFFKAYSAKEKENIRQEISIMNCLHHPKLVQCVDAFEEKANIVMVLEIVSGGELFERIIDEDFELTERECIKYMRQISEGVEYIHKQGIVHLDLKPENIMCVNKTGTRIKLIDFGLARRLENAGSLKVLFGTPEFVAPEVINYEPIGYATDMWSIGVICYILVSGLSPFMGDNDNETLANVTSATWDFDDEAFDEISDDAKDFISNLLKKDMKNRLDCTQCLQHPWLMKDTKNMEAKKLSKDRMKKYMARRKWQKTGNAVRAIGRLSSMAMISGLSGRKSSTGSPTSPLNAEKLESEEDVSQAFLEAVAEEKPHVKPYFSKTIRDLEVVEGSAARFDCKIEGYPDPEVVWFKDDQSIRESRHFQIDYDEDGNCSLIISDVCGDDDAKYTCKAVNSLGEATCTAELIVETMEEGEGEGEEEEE

Q: How did the IC50 turn out when CNCc1ccc(-c2[nH]c3cc(F)cc4c3c2CCNC4=O)cc1 [AG014699] was run?
A: 55 µM
